Literature values, collected in PubChem BioAssay AID1259409 (Chemical Carcinogenesis Research Information System (CCRIS), 2018).

Test system: rodent chemically induced tumor inhibition, incidence and multiplicity
Experiment: CCRIS tumor inhibitor studies
Conditions: Dose [Inhibitor]: 0

## CCOC(=O)/C=C\C(=O)OCC
Carcinogen: BUTYLATED HYDROXYANISOLE, 25013-16-5, 0.2% IN DIET SIMULTANEOUSLY WITH CARCINOGEN FOR 104 WK (STUDY DURATION: 104 WK), Route [Inhibitor]: ORAL, Species: RAT, Strain/Sex: F344/MALE, Target Tissue: Type of Lesion: FORESTOMACH: PAPILLOMA, Dose [Carcinogen]: 2% IN DIET FOR 104 WK, Promoter: NONE USED
  tumour outcome (control, treated, inhibition, significance): 88%, 27%, 69%, p<0.01
Carcinogen: BUTYLATED HYDROXYANISOLE, 25013-16-5, 0.2% IN DIET SIMULTANEOUSLY WITH CARCINOGEN FOR 104 WK (STUDY DURATION: 104 WK), Route [Inhibitor]: ORAL, Species: RAT, Strain/Sex: F344/MALE, Target Tissue: Type of Lesion: FORESTOMACH: SQUAMOUS CELL CARCINOMA, Dose [Carcinogen]: 2% IN DIET FOR 104 WK, Promoter: NONE USED
  tumour outcome (control, treated, inhibition, significance): 20%, 5%, 75%, not calculated
Carcinogen: N-BUTYL-N-(4-HYDROXYBUTYL)NITROSAMINE, 3817-11-6, 0.15% IN DRINKING WATER FOR 31 WK BEGINNING POST CARCINOGEN DOSE (STUDY DURATION: 36 WK), Route [Inhibitor]: ORAL, Species: RAT, Strain/Sex: F344/MALE, Target Tissue: Type of Lesion: URINARY BLADDER: CARCINOMA, Dose [Carcinogen]: 0.05% IN DRINKING WATER FOR 4 WK, Promoter: BUTYLATED HYDROXYANISOLE, 25013-16-5
  tumour outcome (control, treated, inhibition, significance): 5/15 (33%), 2/15 (13%), 61%, not significant
Carcinogen: N-BUTYL-N-(4-HYDROXYBUTYL)NITROSAMINE, 3817-11-6, 0.15% IN DRINKING WATER FOR 31 WK BEGINNING POST CARCINOGEN DOSE (STUDY DURATION: 36 WK), Route [Inhibitor]: ORAL, Species: RAT, Strain/Sex: F344/MALE, Target Tissue: Type of Lesion: URINARY BLADDER: PAPILLOMA, Dose [Carcinogen]: 0.05% IN DRINKING WATER FOR 4 WK, Promoter: BUTYLATED HYDROXYANISOLE, 25013-16-5
  tumour outcome (control, treated, inhibition, significance): 8/15 (53%), 10/15 (67%), -26%, not significant
Carcinogen: N-BUTYL-N-(4-HYDROXYBUTYL)NITROSAMINE, 3817-11-6, 0.15% IN DRINKING WATER FOR 31 WK BEGINNING POST CARCINOGEN DOSE (STUDY DURATION: 36 WK), Route [Inhibitor]: ORAL, Species: RAT, Strain/Sex: F344/MALE, Target Tissue: Type of Lesion: URINARY BLADDER: PAPILLOMA, Dose [Carcinogen]: 0.05% IN DRINKING WATER FOR 4 WK, Promoter: SODIUM BICARBONATE, 144-55-8
  tumour outcome (control, treated, inhibition, significance): 9/15 (60%), 9/15 (60%), 0%, not significant
Carcinogen: N-METHYL-N'-NITRO-N-NITROSOGUANIDINE, 70-25-7, 0.2% IN DIET BEGINNING 1 WK POST CARCINOGEN DOSE AND CONTINUING FOR 51 WK (STUDY DURATION: 52 WK), Route [Inhibitor]: ORAL, Species: RAT, Strain/Sex: F344/MALE, Target Tissue: Type of Lesion: FORESTOMACH: CARCINOMA, Dose [Carcinogen]: 150 MG/KG ONCE, Promoter: BUTYLATED HYDROXYANISOLE, 25013-16-5
  tumour outcome (control, treated, inhibition, significance): 5/14 (36%), 0/14 (0%), 100%, p<0.05
Carcinogen: N-METHYL-N'-NITRO-N-NITROSOGUANIDINE, 70-25-7, 0.2% IN DIET BEGINNING 1 WK POST CARCINOGEN DOSE AND CONTINUING FOR 51 WK (STUDY DURATION: 52 WK), Route [Inhibitor]: ORAL, Species: RAT, Strain/Sex: F344/MALE, Target Tissue: Type of Lesion: FORESTOMACH: PAPILLOMA, Dose [Carcinogen]: 150 MG/KG ONCE, Promoter: BUTYLATED HYDROXYANISOLE, 25013-16-5
  tumour outcome (control, treated, inhibition, significance): 14/14 (100%), 11/14 (79%), 21%, not calculated
Carcinogen: N-METHYL-N'-NITRO-N-NITROSOGUANIDINE, 70-25-7, 0.2% IN DIET BEGINNING 1 WK POST CARCINOGEN DOSE AND CONTINUING FOR 51 WK (STUDY DURATION: 52 WK), Route [Inhibitor]: ORAL, Species: RAT, Strain/Sex: F344/MALE, Target Tissue: Type of Lesion: FORESTOMACH: SARCOMA, Dose [Carcinogen]: 150 MG/KG ONCE, Promoter: BUTYLATED HYDROXYANISOLE, 25013-16-5
  tumour outcome (control, treated, inhibition, significance): 1/14 (7%), 4/14 (29%), -314%, not calculated
Carcinogen: N-METHYL-N'-NITRO-N-NITROSOGUANIDINE, 70-25-7, 0.2% IN DIET BEGINNING 1 WK POST CARCINOGEN DOSE AND CONTINUING FOR 51 WK (STUDY DURATION: 52 WK), Route [Inhibitor]: ORAL, Species: RAT, Strain/Sex: F344/MALE, Target Tissue: Type of Lesion: FORESTOMACH: SQUAMOUS CELL CARCINOMA, Dose [Carcinogen]: 150 MG/KG ONCE, Promoter: BUTYLATED HYDROXYANISOLE, 25013-16-5
  tumour outcome (control, treated, inhibition, significance): 14/14 (100%), 5/14 (36%), 64%, p<0.001

## CS(=O)(=O)Nc1ccc([N+](=O)[O-])cc1OC1CCCCC1
Carcinogen: 4-METHYLNITROSAMINO)-1-(3-PYRIDYL)-1-BUTANONE, 64091-91-4, 7 MMOL/KG BW/D IN DIET FOR DURATION OF STUDY BEGINNING 2 WK PRIOR TO CARCINOGEN TREATMENT (STUDY DURATION: 25 WK), Route [Inhibitor]: ORAL, Species: MOUSE, Strain/Sex: STRAIN-A/FEMALE, Target Tissue: Type of Lesion: LUNG: TUMOR, Dose [Carcinogen]: 2.2 MMOL/KG BW (TOTAL DOSE) ADMINISTERED IN DRINKING WATER FOR 7 WK, Promoter: NONE USED
  tumour outcome (control, treated, inhibition, significance): 29/29 (100%), 25/25 (100%), 0%, not significant

## S=C=NCCCCCCCCCCc1ccccc1
Carcinogen: 4-(METHYLNITROSAMINO)-1-(3-PYRIDYL)-1-BUTANONE, 64091-91-4, 0.04 UMOL ONCE 2 HR PRIOR TO CARCINOGEN DOSE (STUDY DURATION: 16 WK), Route [Inhibitor]: GAVAGE, Species: MOUSE, Strain/Sex: STRAIN-A/FEMALE, Target Tissue: Type of Lesion: LUNG: ADENOMA, Dose [Carcinogen]: 10 UMOL IN 0.1 ML SALINE ONCE, Promoter: NONE USED
  tumour outcome (control, treated, inhibition, significance): 100%, 100%, 0%, not significant
Carcinogen: 4-(METHYLNITROSAMINO)-1-(3-PYRIDYL)-1-BUTANONE, 64091-91-4, 0.1 UMOL ONCE 2 HR PRIOR TO CARCINOGEN DOSE (STUDY DURATION: 16 WK), Route [Inhibitor]: GAVAGE, Species: MOUSE, Strain/Sex: STRAIN-A/FEMALE, Target Tissue: Type of Lesion: LUNG: ADENOMA, Dose [Carcinogen]: 10 UMOL IN 0.1 ML SALINE ONCE, Promoter: NONE USED
  tumour outcome (control, treated, inhibition, significance): 100%, 100%, 0%, not significant
Carcinogen: 4-(METHYLNITROSAMINO)-1-(3-PYRIDYL)-1-BUTANONE, 64091-91-4, 0.2 UMOL ONCE 2 HR PRIOR TO CARCINOGEN DOSE (STUDY DURATION: 16 WK), Route [Inhibitor]: GAVAGE, Species: MOUSE, Strain/Sex: STRAIN-A/FEMALE, Target Tissue: Type of Lesion: LUNG: ADENOMA, Dose [Carcinogen]: 10 UMOL IN 0.1 ML SALINE ONCE, Promoter: NONE USED
  tumour outcome (control, treated, inhibition, significance): 100%, 70%, 30%, p<0.05

## COc1cc(CC(C)C(C)Cc2ccc(O)c(OC)c2)ccc1O (configuration not stated)
Carcinogen: 2,2'-DIHYDROXY-DI-N-PROPYLNITROSAMINE, 53609-64-6, N-ETHYL-N-HYDROXYETHYLNITROSAMINE, 13147-25-6, 3,2'-DIMETHYL-1,4-, Carcinogen: 2,2'-DIHYDROXY-DI-N-PROPYLNITROSAMINE, 53609-64-6, N-ETHYL-N-HYDROXYETHYLNITROSAMINE, 13147-25-6, 3,2'-DIMETHYL-1,4-, 1% IN DIET FOR 4 WK BEGINNING 1 D PRIOR TO FIRST CARCINOGEN DOSE (STUDY DURATION: 36 WK), Route [Inhibitor]: ORAL, Species: RAT, Strain/Sex: F344/MALE, Target Tissue: Type of Lesion: KIDNEY: ADENOMA, Dose [Carcinogen]: 1000 MG/KG BW DHPN TWICE, 1500 MG/KG EHEN TWICE, 75 MG/KG BW DMAB 3 TIMES, SEQUENTIALLY OVER 3 WK, Promoter: NONE USED
  tumour outcome (control, treated, inhibition, significance): 6/10 (60%), 5/12 (42%), 30%, not significant
Carcinogen: 2,2'-DIHYDROXY-DI-N-PROPYLNITROSAMINE, 53609-64-6, N-ETHYL-N-HYDROXYETHYLNITROSAMINE, 13147-25-6, 3,2'-DIMETHYL-1,4-, Carcinogen: 2,2'-DIHYDROXY-DI-N-PROPYLNITROSAMINE, 53609-64-6, N-ETHYL-N-HYDROXYETHYLNITROSAMINE, 13147-25-6, 3,2'-DIMETHYL-1,4-, 1% IN DIET FOR 4 WK BEGINNING 1 D PRIOR TO FIRST CARCINOGEN DOSE (STUDY DURATION: 36 WK), Route [Inhibitor]: ORAL, Species: RAT, Strain/Sex: F344/MALE, Target Tissue: Type of Lesion: LUNG: ADENOMA, Dose [Carcinogen]: 1000 MG/KG BW DHPN TWICE, 1500 MG/KG EHEN TWICE, 75 MG/KG BW DMAB 3 TIMES, SEQUENTIALLY OVER 3 WK, Promoter: NONE USED
  tumour outcome (control, treated, inhibition, significance): 5/10 (50%), 6/12 (50%), 0%, not significant

## CCCCCCCCCc1ccc(O)cc1
Carcinogen: 7,12-DIMETHYLBENZ[A]ANTHRACENE, 57-97-6, 25 PPM IN DIET FOR 50 WK BEGINNING 1 WK POST-CARCINOGEN DOSE (STUDY DURATION: 51 WK), Route [Inhibitor]: ORAL, Species: RAT, Strain/Sex: SPRAGUE-DAWLEY/FEMALE, Target Tissue: Type of Lesion: OVARY: ADENOCARCINOMA, Dose [Carcinogen]: 0.01 ML OF 0.5% DMBA IN OLIVE OIL INTO THE LEFT OVARY, ONCE, UNDER PENTOBARBITAL ANESTHESIA, Promoter: NONE USED
  tumour outcome (control, treated, inhibition, significance): 7/20 (35%), 1/20 (5%), 86%, p=0.02
Carcinogen: 7,12-DIMETHYLBENZ[A]ANTHRACENE, 57-97-6, 250 PPM IN DIET FOR 50 WK BEGINNING 1 WK POST-CARCINOGEN DOSE (STUDY DURATION: 51 WK), Route [Inhibitor]: ORAL, Species: RAT, Strain/Sex: SPRAGUE-DAWLEY/FEMALE, Target Tissue: Type of Lesion: OVARY: ADENOCARCINOMA, Dose [Carcinogen]: 0.01 ML OF 0.5% DMBA IN OLIVE OIL INTO THE LEFT OVARY, ONCE, UNDER PENTOBARBITAL ANESTHESIA, Promoter: NONE USED
  tumour outcome (control, treated, inhibition, significance): 7/20 (35%), 1/20 (5%), 86%, p=0.02
